From ChEMBL document CHEMBL3603789, “N-Lipidated Peptide Dimers: Effective Antibacterial Agents against Gram-Negative Pathogens through Lipopolysaccharide Permeabilization” (J Med Chem, 2015)
≈ marks a conversion by molar mass, not a printed value. Calls of active or inactive are those of the source. The calls are words filed in the database; no cut-off is given here. Bridge positions count the residues as written; N and C are the ends. Peptide text beside a SMILES is read from it. I, II: the chains in the order shown. * marks the point of attachment. Decanoyl = CCCCCCCCCC(=O)*; Octanoyl = CCCCCCCC(=O)*; Butyryl = CCCC(=O)*

Experiments:
[1] = Toxicity in New Zealand white rabbit erythrocytes assessed as hemolytic activity after 60 mins; type: cell-based, Oryctolagus cuniculus; conditions: erythrocyte, 1 h
Klebsiella pneumoniae = experiment: Antibacterial activity against Klebsiella pneumoniae DM4299 after 24 hrs by broth microdilution method; type: functional; conditions: DM4299, 24 h
Pseudomonas aeruginosa [2] = experiment: Antibacterial activity against Pseudomonas aeruginosa DM23155 after 24 hrs by broth microdilution method; type: functional; conditions: DM23155, 24 h
Escherichia coli [3] = experiment: Antibacterial activity against Escherichia coli ATCC 25922 after 24 hrs by broth microdilution method; type: functional; conditions: ATCC 25922, 24 h
Lipopolysaccharide (LPS) [4] = experiment: Displacement of dansylcadaverine from Escherichia coli 0111:B4 LPS at 15 to 30 uM after 5 mins by high-throughput fluorescence displacement assay
Lipopolysaccharide (LPS) [5] = experiment: Induction of Escherichia coli 0111:B4 LPS neutralization using p-nitroaniline assessed as concentration required to neutralize 50% after 1 hr by limulus amebocyte lysate assay
Lipopolysaccharide (LPS) [6] = experiment: Induction of Pseudomonas aeruginosa serotype 10 LPS neutralization using p-nitroaniline assessed as concentration required to neutralize 50% after 1 hr by limulus amebocyte lysate assay
Pseudomonas aeruginosa [7] = experiment: Induction of 1-N-phenylnaphthylamine uptake in Pseudomonas aeruginosa DM23155 at 400 uM after 1 hr by fluorescence assay relative to polymyxin B; type: functional
Pseudomonas aeruginosa [8] = experiment: Antibacterial activity against Pseudomonas aeruginosa DR18531 after 24 hrs by broth microdilution method; type: functional; conditions: DR18531, 24 h
Pseudomonas aeruginosa [9] = experiment: Antibacterial activity against Pseudomonas aeruginosa DM4150R after 24 hrs by broth microdilution method; type: functional
Pseudomonas aeruginosa [10] = experiment: Antibacterial activity against Pseudomonas aeruginosa DM23257 after 24 hrs by broth microdilution method; type: functional; conditions: DM23257, 24 h
Pseudomonas aeruginosa [11] = experiment: Antibacterial activity against Pseudomonas aeruginosa DM23376 after 24 hrs by broth microdilution method; type: functional; conditions: DM23376, 24 h
Pseudomonas aeruginosa [12] = experiment: Antibacterial activity against Pseudomonas aeruginosa DU14476 after 24 hrs by broth microdilution method; type: functional; conditions: DU14476, 24 h
Pseudomonas aeruginosa [13] = experiment: Antibacterial activity against Pseudomonas aeruginosa DR5790 after 24 hrs by broth microdilution method; type: functional; conditions: DR5790, 24 h
Pseudomonas aeruginosa [14] = experiment: Antibacterial activity against Pseudomonas aeruginosa DR4877 after 24 hrs by broth microdilution method; type: functional; conditions: DR4877, 24 h
Pseudomonas aeruginosa [15] = experiment: Antibacterial activity against Pseudomonas aeruginosa ATCC 9027 after 24 hrs by broth microdilution method; type: functional; conditions: ATCC 9027, 24 h
Pseudomonas aeruginosa [16] = experiment: Antibacterial activity against Pseudomonas aeruginosa ATCC 27853 after 24 hrs by broth microdilution method; type: functional; conditions: ATCC 27853, 24 h
Pseudomonas aeruginosa [17] = experiment: Induction of cytoplasmic membrane depolarization in Pseudomonas aeruginosa DM23155 at 4 times MIC after 1 hr by fluorescence assay; type: functional, organism-based
[18] = Induction of calcein leakage from DOPC artificial membrane at 1:32 ratio of compound to lipid by fluorescence assay; type: physicochemical
Pseudomonas aeruginosa [19] = experiment: Antibacterial activity against Pseudomonas aeruginosa DM23155 assessed as log reduction of viable count at 2 times MIC after 30 mins by time-kill assay relative to control; type: functional
Pseudomonas aeruginosa [20] = experiment: Antibacterial activity against Pseudomonas aeruginosa DM23155 assessed as log reduction of viable count MIC up to 24 hrs by time-kill assay; type: functional, organism-based
Pseudomonas aeruginosa [21] = experiment: Antibacterial activity against Pseudomonas aeruginosa DM23155 assessed as log reduction of viable count at 1 to 2 times MIC by time-kill assay relative to control; type: functional, organism-based
Pseudomonas aeruginosa [22] = experiment: Antibacterial activity against Pseudomonas aeruginosa DM23155 assessed as log reduction of viable count at 1 to 2 times MIC after 24 hrs by time-kill assay; type: functional, organism-based
Pseudomonas aeruginosa [23] = experiment: Antibacterial activity against Pseudomonas aeruginosa DM23155 after 24 hrs by checkerboard assay in presence of nalidixic acid; type: functional
Pseudomonas aeruginosa [24] = experiment: Antibacterial activity against Pseudomonas aeruginosa DM23155 after 24 hrs by checkerboard assay in presence of gentamicin; type: functional
Pseudomonas aeruginosa [25] = experiment: Antibacterial activity against Pseudomonas aeruginosa DM23155 after 24 hrs by checkerboard assay in presence of erythromycin; type: functional
Pseudomonas aeruginosa [26] = experiment: Antibacterial activity against Pseudomonas aeruginosa DM23155 after 24 hrs by checkerboard assay in presence of streptomycin; type: functional
Pseudomonas aeruginosa [27] = experiment: Antibacterial activity against Pseudomonas aeruginosa DM23155 after 24 hrs by checkerboard assay in presence of kanamycin; type: functional
Escherichia coli [28] = experiment: Antibacterial activity against Escherichia coli ATCC 25922 after 24 hrs by checkerboard assay in presence of nalidixic acid; type: functional
Escherichia coli [29] = experiment: Antibacterial activity against Escherichia coli ATCC 25922 after 24 hrs by checkerboard assay in presence of gentamicin; type: functional
Escherichia coli [30] = experiment: Antibacterial activity against Escherichia coli ATCC 25922 after 24 hrs by checkerboard assay in presence of erythromycin; type: functional
Escherichia coli [31] = experiment: Antibacterial activity against Escherichia coli ATCC 25922 after 24 hrs by checkerboard assay in presence of streptomycin; type: functional
Escherichia coli [32] = experiment: Antibacterial activity against Escherichia coli ATCC 25922 after 24 hrs by checkerboard assay in presence of kanamycin; type: functional
Pseudomonas aeruginosa [33] = experiment: Induction of cytoplasmic membrane disruption in Pseudomonas aeruginosa DM23155 assessed as membrane integrity at 1 to 2 times MIC after 1 hr by fluorescence assay; type: functional
Pseudomonas aeruginosa [34] = experiment: Induction of cytoplasmic membrane disruption in Pseudomonas aeruginosa DM23155 assessed as membrane integrity at 2 times MIC after 1 hr by fluorescence assay; type: functional
[35] = Induction of calcein leakage from DOPE/DOPG artificial membrane at 1:32 ratio of compound to lipid by fluorescence assay; type: physicochemical

Row | SMILES | HC10 [1] | MIC (Klebsiella pneumoniae) | MIC (Pseudomonas aeruginosa [2]) | MIC (Escherichia coli [3]) | Activity (Lipopolysaccharide (LPS) [4]) | EC50 (Lipopolysaccharide (LPS) [5]) | Activity (Pseudomonas aeruginosa [7]) | MIC (Pseudomonas aeruginosa [8]) | MIC (Pseudomonas aeruginosa [9]) | MIC (Pseudomonas aeruginosa [10]) | MIC (Pseudomonas aeruginosa [11]) | MIC (Pseudomonas aeruginosa [12]) | MIC (Pseudomonas aeruginosa [13]) | MIC (Pseudomonas aeruginosa [14]) | MIC (Pseudomonas aeruginosa [15]) | MIC (Pseudomonas aeruginosa [16]) | Activity (Pseudomonas aeruginosa [17]) | Activity [18] | also measured
1 | CCCC(=O)N[C@@H](CCCNC(=N)N)C(=O)NCC(=O)N[C@@H](CCCNC(=N)N)C(=O)N[C@@H](CCCCN)C(=O)NCC(=O)NCC(=O)N[C@@H](CCCNC(=N)N)C(=O)N[C@@H](CCCNC(=N)N)C(=O)NCCCC[C@H](NC(=O)[C@H](CCCNC(=N)N)NC(=O)[C@H](CCCNC(=N)N)NC(=O)CNC(=O)CNC(=O)[C@H](CCCCN)NC(=O)[C@H](CCCNC(=N)N)NC(=O)CNC(=O)[C@H](CCCNC(=N)N)NC(=O)CCC)C(=O)N[C@@H](CCCCN)C(=O)O (I: Butyryl-RGRKGGRRKK-OH / II: Butyryl-RGRKGGRR; amide I:9-II:C) | > 10000 µg/mL | 6 µM (≈ 13.6 µg/mL) | 6 µM (≈ 13.6 µg/mL) | 3 µM (≈ 6.79 µg/mL) | 72.4% | 769 µM | 2.5% | – | – | – | – | – | – | – | – | – | – | – | EC50 (Lipopolysaccharide (LPS) [6]): 345 µM
2 | CCCCCCCC(=O)N[C@@H](CCCNC(=N)N)C(=O)NCC(=O)N[C@@H](CCCNC(=N)N)C(=O)N[C@@H](CCCCN)C(=O)NCC(=O)NCC(=O)N[C@@H](CCCNC(=N)N)C(=O)N[C@@H](CCCNC(=N)N)C(=O)NCCCC[C@H](NC(=O)[C@H](CCCNC(=N)N)NC(=O)[C@H](CCCNC(=N)N)NC(=O)CNC(=O)CNC(=O)[C@H](CCCCN)NC(=O)[C@H](CCCNC(=N)N)NC(=O)CNC(=O)[C@H](CCCNC(=N)N)NC(=O)CCCCCCC)C(=O)N[C@@H](CCCCN)C(=O)O (I: Octanoyl-RGRKGGRRKK-OH / II: Octanoyl-RGRKGGRR; amide I:9-II:C) | > 10000 µg/mL | 3 µM (≈ 7.12 µg/mL) | 3 µM (≈ 7.12 µg/mL) | 3 µM (≈ 7.12 µg/mL) | 112% | 117 µM | 20% | 3 µM (≈ 7.12 µg/mL) | 3 µM (≈ 7.12 µg/mL) | 6 µM (≈ 14.2 µg/mL) | 3 µM (≈ 7.12 µg/mL) | 3 µM (≈ 7.12 µg/mL) | 3 µM (≈ 7.12 µg/mL) | 3 µM (≈ 7.12 µg/mL) | 3 µM (≈ 7.12 µg/mL) | 3 µM (≈ 7.12 µg/mL) | Active | Active | FC (Pseudomonas aeruginosa [19]): 3; Activity (Pseudomonas aeruginosa [20]): Dose-dependent effect; Activity (Pseudomonas aeruginosa [21]): Active; Activity (Pseudomonas aeruginosa [22]): Active; fractional inhibitory concentration index (FICI) (Pseudomonas aeruginosa [23]): 0.56; fractional inhibitory concentration index (FICI) (Pseudomonas aeruginosa [24]): 0.38; fractional inhibitory concentration index (FICI) (Pseudomonas aeruginosa [25]): 0.38; fractional inhibitory concentration index (FICI) (Pseudomonas aeruginosa [26]): 0.56; fractional inhibitory concentration index (FICI) (Pseudomonas aeruginosa [27]): 0.56; fractional inhibitory concentration index (FICI) (Escherichia coli [28]): 0.56; fractional inhibitory concentration index (FICI) (Escherichia coli [29]): 0.38; fractional inhibitory concentration index (FICI) (Escherichia coli [30]): 1; fractional inhibitory concentration index (FICI) (Escherichia coli [31]): 0.5; fractional inhibitory concentration index (FICI) (Escherichia coli [32]): 0.56
3 | CCCCCCCCCC(=O)N[C@@H](CCCNC(=N)N)C(=O)NCC(=O)N[C@@H](CCCNC(=N)N)C(=O)N[C@@H](CCCCN)C(=O)N[C@H](C(=O)N[C@H](C(=O)N[C@@H](CCCNC(=N)N)C(=O)N[C@@H](CCCNC(=N)N)C(=O)NCCCC[C@H](NC(=O)[C@H](CCCNC(=N)N)NC(=O)[C@H](CCCNC(=N)N)NC(=O)[C@@H](NC(=O)[C@@H](NC(=O)[C@H](CCCCN)NC(=O)[C@H](CCCNC(=N)N)NC(=O)CNC(=O)[C@H](CCCNC(=N)N)NC(=O)CCCCCCCCC)C(C)C)C(C)C)C(=O)N[C@@H](CCCCN)C(=O)O)C(C)C)C(C)C (I: Decanoyl-RGRKVVRRKK-OH / II: Decanoyl-RGRKVVRR; amide I:9-II:C) | > 10000 µg/mL | 3 µM (≈ 7.8 µg/mL) | 3 µM (≈ 7.8 µg/mL) | 6 µM (≈ 15.6 µg/mL) | 131% | 38.1 µM | – | 1.5 µM (≈ 3.9 µg/mL) | 1.5 µM (≈ 3.9 µg/mL) | 3 µM (≈ 7.8 µg/mL) | 3 µM (≈ 7.8 µg/mL) | 3 µM (≈ 7.8 µg/mL) | 3 µM (≈ 7.8 µg/mL) | 6 µM (≈ 15.6 µg/mL) | 3 µM (≈ 7.8 µg/mL) | 3 µM (≈ 7.8 µg/mL) | Active | Active | Activity (Pseudomonas aeruginosa [33]): >80%; Activity (Pseudomonas aeruginosa [34]): 51.1%; Activity [35]: Active
